The record followed here is PubChem BioAssay AID588639 (Sanford-Burnham Center for Chemical Genomics, 2011).

SMILES strings stand for the structures. Calls of active or inactive are those of the source. The rule behind the calls is not given here. Bounds are passed on as bounds.

As a reminder, the IC50 is the concentration that inhibits the measured activity by half.

The assay deals with Alkaline phosphatase, tissue-nonspecific isozyme (Homo sapiens) (UniProt P05186). The assay is described as follows: inhibition of tissue-nonspecific alkaline phosphatase – biochemical, set 2, selectivity assay for mouse IAP inhibitor project, SAR follow-up (AID 588639). To be noted: purified human TNAP enzyme activity, counter-screen for mouse IAP.
Alkaline phosphatase, tissue-nonspecific isozyme (Homo sapiens), sequence (P05186 whole entry, looked up): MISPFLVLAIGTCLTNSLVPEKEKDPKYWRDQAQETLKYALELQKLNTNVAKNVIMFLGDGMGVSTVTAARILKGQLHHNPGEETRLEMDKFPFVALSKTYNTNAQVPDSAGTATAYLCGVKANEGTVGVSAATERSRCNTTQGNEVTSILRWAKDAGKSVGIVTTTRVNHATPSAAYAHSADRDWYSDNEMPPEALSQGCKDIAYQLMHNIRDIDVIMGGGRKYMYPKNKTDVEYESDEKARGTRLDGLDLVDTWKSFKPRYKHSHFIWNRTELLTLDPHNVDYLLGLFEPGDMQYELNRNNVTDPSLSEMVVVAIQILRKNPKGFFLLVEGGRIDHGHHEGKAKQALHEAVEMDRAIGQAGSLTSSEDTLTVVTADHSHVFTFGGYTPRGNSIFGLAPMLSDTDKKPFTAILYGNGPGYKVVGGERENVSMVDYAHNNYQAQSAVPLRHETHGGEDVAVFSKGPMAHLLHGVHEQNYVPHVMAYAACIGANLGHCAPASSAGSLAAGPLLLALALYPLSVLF
With `COc1ccc(CNC(=O)CCCNS(=O)(=O)c2ccc3[nH]c(=O)oc3c2)c(OC)c1`, the IC50 was > 100 µM (inactive).

As for `COc1ccc(C(=O)N/N=C/c2ccccc2F)cc1`, the IC50 is > 100 µM (inactive).

Turning to `O=C(NCc1ccc(F)cc1)C1CCCN(S(=O)(=O)c2ccc3[nH]c(=O)oc3c2)C1` (configuration not stated), the IC50 is > 100 µM (inactive).

`COc1ccc(OC)c(NC(=O)CCNS(=O)(=O)c2ccc3c(c2)oc(=O)n3C)c1`: the IC50 was > 100 µM (inactive).

As to `COc1ccc(CNC(=O)CNS(=O)(=O)c2ccc3[nH]c(=O)oc3c2)c(OC)c1`, the IC50 is > 100 µM (inactive).

For the compound `CCOc1ccc(CNC(=O)C2CCCN(S(=O)(=O)c3ccc4[nH]c(=O)oc4c3)C2)cc1OC` (configuration not stated), the IC50 is > 100 µM (inactive).

As to `O=C(CNS(=O)(=O)c1ccc2[nH]c(=O)oc2c1)NCCc1ccc2c(c1)OCO2`, the IC50 is > 100 µM (inactive).

With `COc1ccc(CNC(=O)C2CCCN(S(=O)(=O)c3ccc4[nH]c(=O)oc4c3)C2)cc1` (configuration not stated), the IC50 was > 100 µM (inactive).

Take `CC(C)c1ccc(NC(=O)C2CCCN(S(=O)(=O)c3ccc4c(c3)oc(=O)n4C)C2)cc1` (configuration not stated): the IC50 is > 100 µM (inactive).

For the compound `O=c1[nH]c2ccc(S(=O)(=O)NCc3ccc4c(c3)OCO4)cc2o1`, the IC50 is > 100 µM (inactive).

For the compound `COc1cccc(NC(=O)CCNS(=O)(=O)c2ccc3c(c2)oc(=O)n3C)c1`, the IC50 was > 100 µM (inactive).

As to `Cc1ccccc1CNC(=O)CCCNS(=O)(=O)c1ccc2[nH]c(=O)oc2c1`, the IC50 was > 100 µM (inactive).

Take `O=C(N/N=C/c1c(F)cccc1Cl)c1cc(O)c(O)c(O)c1`: the IC50 is > 100 µM (inactive).

`O=C(CCNS(=O)(=O)c1ccc2[nH]c(=O)oc2c1)NCc1ccc(O)c(O)c1`: the IC50 is > 100 µM (inactive).

In the case of `O=C(CCNS(=O)(=O)c1ccc2[nH]c(=O)oc2c1)NCc1ccc(Cl)cc1`, the IC50 is > 100 µM (inactive).

Take `O=c1[nH]c2ccc(S(=O)(=O)NCCc3ccc4c(c3)OCO4)cc2o1`: the IC50 is > 100 µM (inactive).

Consider `O=C(CCNS(=O)(=O)c1ccc2ccccc2c1)NCCc1ccc2c(c1)OCO2`, for which the IC50 is > 100 µM (inactive).

`O=C(N/N=C/c1c(F)cccc1Cl)c1ccc(O)cc1`: the IC50 is > 100 µM (inactive).

For the compound `Cc1ccc(NC(=O)CCNS(=O)(=O)c2ccc3[nH]c(=O)oc3c2)cc1C`, the IC50 was > 100 µM (inactive).

As to `COc1ccc(CNC(=O)CNS(=O)(=O)c2ccc3[nH]c(=O)oc3c2)cc1`, the IC50 is > 100 µM (inactive).

For `CC(=NNC(=O)c1ccccc1OCCOc1ccccc1)c1ccccc1F`, the IC50 was > 100 µM (inactive).

In the case of `CC(C)(C)c1ccc(/C=N/NC(=O)c2cc(O)c(O)c(O)c2)cc1`, the IC50 was > 100 µM (inactive).

Turning to `COc1ccccc1CNC(=O)CCNS(=O)(=O)c1ccc2[nH]c(=O)oc2c1`, the IC50 was > 100 µM (inactive).

In the case of `COc1ccc(CNS(=O)(=O)c2ccc3[nH]c(=O)oc3c2)cc1`, the IC50 was > 100 µM (inactive).

With `O=C(NCc1ccccc1)C1CCCN(S(=O)(=O)c2ccc3[nH]c(=O)oc3c2)C1` (configuration not stated), the IC50 was > 100 µM (inactive).

Consider `Cc1cc(NC(=O)CCNS(=O)(=O)c2ccc3[nH]c(=O)oc3c2)ccc1Br`, for which the IC50 was > 100 µM (inactive).

As for `CCc1ccc(NC(=O)C2CCCN(S(=O)(=O)c3ccc4c(c3)oc(=O)n4C)C2)cc1` (configuration not stated), the IC50 was > 100 µM (inactive).

As for `Cc1ccc(C)c(CNC(=O)C2CCCN(S(=O)(=O)c3ccc4[nH]c(=O)oc4c3)C2)c1` (configuration not stated), the IC50 is > 100 µM (inactive).

In the case of `O=C(CCNS(=O)(=O)c1ccc2[nH]c(=O)oc2c1)NCc1ccccc1`, the IC50 was > 100 µM (inactive).

Regarding `CSc1cccc(NC(=O)CCNS(=O)(=O)c2ccc3c(c2)oc(=O)n3C)c1`, the IC50 was > 100 µM (inactive).

In the case of `COc1cccc(/C=N/NC(=O)c2cc(O)c(O)c(O)c2)c1O`, the IC50 is > 100 µM (inactive).

With `COc1ccc(NC(=O)CCNS(=O)(=O)c2ccc3c(c2)CCC3)cc1OC`, the IC50 is > 100 µM (inactive).
